For test [1], the target named is T1, IDO1 (Homo sapiens, UniProt P14902). In words: IDO1 Cellular Assay in HeLa Cells Stimulated with IFNγ. In kind it is cell-based. The conditions noted are these: read-out: HeLa Cell Potency, IC50.
The target in test [2] is T1, IDO1. Kind of test: IDO1 Human Whole blood Assay. Set-up: Human whole blood was drawn in sodium heparin coated tubes from healthy internal donors; from tissue; host or cells: human whole blood from healthy donors, stimulated with LPS and IFNγ. The conditions noted are these: LPS and IFNγ stimulated, 18 h, read-out: Human Whole Blood Potency, IC50. In kind it is cell-based. As for the experimental part:
IDO1Human Whole blood Assay
Compounds to be tested were serially diluted in ten 3-fold steps in DMSO starting from 10 mM. 3 μL of compound dilutions or DMSO alone were then dispensed from the dilution plate into a polypropylene 96-well assay plate containing 97 μL of RPMI medium using an Echo 555 acoustic liquid handler (Labcyte). LPS and IFNγ was prepared in RPMI medium to a 10× of final conc. (1000 ng/mL), final concentration is 100 ng/mL.
Human whole blood was drawn in sodium heparin coated tubes from healthy internal donors. 240 μL of blood was transferred to each of the wells of a v-bottom 96 well plate. 30 μL of compound was transferred from intermediate dilution plate, and incubated for 15 min. 30 μL from stimulants was then transferred to blood and mixed thoroughly. Plate was covered with breathable membrane and incubated at 37° C. for overnight (18 h).
On day 2, isotope labeled standard solutions of kynurenine and tryptophan was made in water at 10× concentration and 30 μL was added to the blood at 3 μM final concentration. The assay plates were centrifuged at 300×G for 10 min with no brake to separate plasma from red blood cells. 60 μL of plasma samples was removed without disturbing red blood cells. Plasma was diluted with RPMI in 1:1 ratio and proteins were precipitated out with two volumes of Acetonitrile. The plates were centrifuged at 4000×G for 60 min. 20 μL of supernatant was carefully transferred to a 384 well plate containing 40 μL of 0.1% formic acid in water and analyzed by LC/MS/MS.
LC/MS/MS analyses were performed using Thermo Fisher's LX4-TSQ Quantum Ultra system. This system consists of four Agilent binary high-performance liquid chromatography (HPLC) pumps and a TSQ Quantum Ultra triple quadrupole MS/MS instrument. For each sample, 5 μL were injected onto an Atlantis T3 column (2.1 mm×150 mm, 3 μm particle size) from Waters. The mobile phase gradient pumped at 0.8 mL/min was used to elute the analytes from the column at 25° C. The elution started at 0% B increasing linearly to 25% B at 6.5 min, holding at 25% for 1 min, re-equilibrating to 10 min. Mobile phase A consisted of 0.1% formic acid in water. Mobile phase B consisted of 0.1% of formic acid in acetonitrile. Data were acquired in positive mode using a HESI interface. The operational parameters for the TSQ Quantum Ultra instrument were a spray voltage of 4000 V, capillary temperature of 380° C., vaporizer temperature 400° C., shealth gas 60 arbitrary units, Aux gas 20 arbitrary units, tube lens 85 and collision gas 1.2 mTorr. SRM chromatograms of kynurenine (Q1: 209.2>Q3:94.0) and internal standard (Q1: 215.3>Q3:98.2) were collected for 90 sec. The peak area was integrated by Xcalibur Quan software. The ratios between the kynurenine generated in the reaction and 2D6-Kynurenine spiked-in internal standard were used to generate percentage inhibition and IC50 values. Compounds were titrated and IC50's were calculated by 4 parameter sigmoidal curve fitting formula.

In patent US12264134B2 (Merck Sharp & Dohme LLC, priority 2018, dated 2025) one finds IC50 data, which are given here for 17 compounds.

T1 sequence (P14902 whole entry): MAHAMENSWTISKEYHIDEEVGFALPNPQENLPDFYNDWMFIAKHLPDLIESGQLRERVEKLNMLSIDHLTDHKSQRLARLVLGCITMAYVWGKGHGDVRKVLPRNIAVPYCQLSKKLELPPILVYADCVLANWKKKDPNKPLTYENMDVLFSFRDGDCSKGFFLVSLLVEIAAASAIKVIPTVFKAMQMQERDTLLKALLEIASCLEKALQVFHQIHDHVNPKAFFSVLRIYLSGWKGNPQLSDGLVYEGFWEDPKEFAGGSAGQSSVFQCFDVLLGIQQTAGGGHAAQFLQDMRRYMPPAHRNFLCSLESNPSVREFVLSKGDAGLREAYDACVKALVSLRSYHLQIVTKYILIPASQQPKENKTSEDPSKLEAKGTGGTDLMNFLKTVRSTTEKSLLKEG

Broadly, the IC50 is the concentration needed to halve the response being measured. Consider `Cc1c(F)ccc(N2CCN(C(=O)Cn3nc(C(=O)N4CCN(C(=O)CO)CC4)c4c3C[C@H]3C[C@@H]43)C3(CC3)C2)c1C` [Example 319, 1-[7-(4-fluoro-2,3-dimethylphenyl)-4,7-diazaspiro[2.5]octan-4-yl]-2-{(3bR,4aR)-3-[4-(hydroxyacetyl)piperazine-1-carbonyl]-3b,4,4a,5-tetrahydro-1H-cyclopropa[3,4]cyclopenta[1,2-c]pyrazol-1-yl}ethan-1-one], for which the IC50 worked out at 1.31 nM at IDO1 [1] and 452 nM on IDO1 [2].

As for `Cc1cccc(N2CCN(C(=O)Cn3nc(C(=O)N4CC[C@@H](O)[C@@H](F)C4)c4c3C[C@H]3C[C@@H]43)CC2)c1C` [Example 288, 1-[4-(2,3-dimethylphenyl)piperazin-1-yl]-2-{(3bR,4aR)-3-[(3S,4R)-3-fluoro-4-hydroxypiperidine-1-carbonyl]-3b,4,4a,5-tetrahydro-1H-cyclopropa[3,4]cyclopenta[1,2-c]pyrazol-1-yl}ethan-1-one], the IC50 at IDO1 [1] was found to be 1.71 nM; at IDO1 [2], 100 nM.

With `Cc1c(Cl)cccc1N1CCN(C(=O)Cn2nc(C(=O)N3CCN(C(=O)CO)CC3)c3c2C[C@H]2C[C@@H]32)CC1` [Example 352, 1-(4-(3-chloro-2-methylphenyl)piperazin-1-yl)-2-((3bR,4aR)-3-(4-(2-hydroxyacetyl)piperazine-1-carbonyl)-3b,4,4a,5-tetrahydro-1H-cyclopropa[3,4]cyclopenta[1,2-c]pyrazol-1-yl)ethanone], the IC50 is 1.17 nM on IDO1 [1] and 79 nM at IDO1 [2].

On to `Cc1cccc(N2CCN(C(=O)Cn3nc(C(=O)N4CCN(C(=O)CO)CC4)c4c3CCCC4)CC2)c1C` [Example 480, 1-(4-(2,3-dimethylphenyl)piperazin-1-yl)-2-(3-(4-(2-hydroxyacetyl)piperazin-1-carbonyl)-4,5,6,7-tetrahydro-1H-indazol-1-yl)ethanone], for which the IC50 on IDO1 [1] turned out to be 8.74 nM; at IDO1 [2] it was 90 nM.

In the case of `Cc1cccc(N2CCN(C(=O)Cn3nc(C(=O)N4CCC5(CCOC5)CC4)c4c3CCC4)CC2)c1C` [Example 93, 1-[4-(2,3-dimethylphenyl)piperazin-1-yl]-2-[3-(2-oxo-8-azaspiro[4.5]decane-8-carbonyl)-5,6-dihydrocyclopenta[c]pyrazol-1(4H)-yl]ethan-1-one], the IC50 at IDO1 [1] amounted to 3.11 nM; at IDO1 [2], 180 nM.

Take `Cc1cccc(N2CCN(C(=O)Cn3nc(C(=O)N4CC[C@H](O)[C@@H](C)C4)c4c3CCC4)CC2)c1C` [Example 94, 1-[4-(2,3-dimethylphenyl)piperazin-1-yl]-2-{3-[(3S,4S)-4-hydroxy-3-methylpiperidine-1-carbonyl]-5,6-dihydrocyclopenta[c]pyrazol-1(4H)-yl}ethan-1-one]: the IC50 came to 2.46 nM on IDO1 [1] and 345 nM on IDO1 [2].

For the compound `Cc1c(Cl)cccc1N1CCN(C(=O)Cn2nc(C(=O)N3CCN(C(=O)CO)CC3)c3c2CCCC3)CC1` [Example 405, 1-(4-(3-chloro-2-methylphenyl)piperazin-1-yl)-2-(3-(4-(2-hydroxyacetyl)piperazine-1-carbonyl)-4,5,6,7-tetrahydro-1H-indazol-1-yl)ethanone], the IC50 is 3.58 nM on IDO1 [1] and 180 nM on IDO1 [2].

Regarding `CC(=O)NC1CCN(C(=O)c2nn(CC(=O)N3CCN(c4cccc(C)c4C)CC3)c3c2CCCC3)CC1` [Example 471, N-(1-(1-(2-(4-(2,3-dimethylphenyl)piperazin-1-yl)-2-oxoethyl)-4,5,6,7-tetrahydro-1H-indazole-3-carbonyl)piperidin-4-yl) acetamide], the IC50 on IDO1 [1] was 2.63 nM; at IDO1 [2], 65 nM.

In the case of `Cc1cccc(N2CCN(C(=O)Cn3nc(C(=O)N4C[C@@H](C)O[C@@H](C)C4)c4c3C[C@H]3C[C@@H]43)CC2)c1C` [Example 283, 2-{(3bR,4aR)-3-[(2R,6S)-2,6-dimethylmorpholine-4-carbonyl]-3b,4,4a,5-tetrahydro-1H-cyclopropa[3,4]cyclopenta[1,2-c]pyrazol-1-yl}-1-[4-(2,3-dimethylphenyl)piperazine-1-yl]ethan-1-one], the IC50 at IDO1 [1] is 1.13 nM; at IDO1 [2], 163 nM.

With `Cc1cccc(N2CCN(C(=O)Cn3nc(C(=O)N4CCC(O)CC4)c4c3C[C@H]3C[C@@H]43)[C@H](C)C2)c1C` [Example 335, 1-[(2R)-4-(2,3-dimethylphenyl)-2-methylpiperazin-1-yl]-2-[(3bR,4aR)-3-(4-hydroxypiperidine-1-carbonyl)-3b,4,4a,5-tetrahydro-1H-cyclopropa[3,4]cyclopenta[1,2-c]pyrazol-1-yl]ethan-1-one], the IC50 on IDO1 [1] worked out at 2.75 nM; on IDO1 [2], 587 nM.

On to `Cc1c(F)ccc(N2CCN(C(=O)Cn3nc(C(=O)N4C[C@@H](C)O[C@@H](C)C4)c4c3CCC4)CC2)c1C` [Example 48, 2-{3-[(2R,6S)-2,6-dimethylmorpholine-4-carbonyl]-5,6-dihydrocyclopenta[c]pyrazol-1(4H)-yl}-1-[4-(4-fluoro-2,3-dimethylphenyl)piperazin-1-yl]ethan-1-one], for which the results for the IC50 at IDO1 [1] and on IDO1 [2] were 2.93 nM and 492 nM, respectively.

Regarding `Cc1cccc(N2CCN(C(=O)Cn3nc(C(=O)N4CC[C@H](O)[C@@H](F)C4)c4c3C[C@H]3C[C@@H]43)CC2)c1C` [Example 291, 1-[4-(2,3-dimethylphenyl)piperazin-1-yl]-2-{(3bR,4aR)-3-[(3S,4S)-3-fluoro-4-hydroxypiperidine-1-carbonyl]-3b,4,4a,5-tetrahydro-1H-cyclopropa[3,4]cyclopenta[1,2-c]pyrazol-1-yl}ethan-1-one], the IC50 on IDO1 [1] came to 2.79 nM; on IDO1 [2], 212 nM.

Regarding `Cc1c(F)ccc(N2CCN(C(=O)Cn3nc(C(=O)N4CCC(O)(CO)CC4)c4c3C[C@H]3C[C@@H]43)C3(CC3)C2)c1C` [Example 323, 1-[7-(4-fluoro-2,3-dimethylphenyl)-4,7-diazaspiro[2.5]octan-4-yl]-2-{(3bR,4aR)-3-[4-hydroxy-4-(hydroxymethyl)piperidine-1-carbonyl]-3b,4,4a,5-tetrahydro-1H-cyclopropa[3,4]cyclopenta[1,2-c]pyrazol-1-yl}ethan-1-one], the IC50 on IDO1 [1] amounted to 0.69 nM; on IDO1 [2] it was 1800 nM.

Turning to `Cc1cccc(N2CCN(C(=O)Cn3nc(C(=O)N4CC[C@@H](O)[C@@H](C)C4)c4c3CCC4)CC2)c1C` [Example 106, 1-[4-(2,3-dimethylphenyl)piperazin-1-yl]-2-{3-[(3S,4R)-4-hydroxy-3-methylpiperidine-1-carbonyl]-5,6-dihydrocyclopenta[c]pyrazol-1(4H)-yl}ethan-1-one], the IC50 is 3.87 nM at IDO1 [1] and 802 nM on IDO1 [2].

`Cc1cccc(N2CCN(C(=O)Cn3nc(C(=O)N4CCCC4)c4c3CCC(F)C4)CC2)c1C` (single isomer, unassigned) [Example 8, 1-(4-(2,3-dimethylphenyl)piperazin-1-yl)-2-(5-fluoro-3-(pyrrolidine-1-carbonyl)-4,5,6,7-tetrahydro-1H-indazol-1-yl)ethanone]: the IC50 at IDO1 [1] stood at 11.3 nM; on IDO1 [2] it was 2440 nM.

On to `Cc1cccc(N2CCN(C(=O)Cn3nc(C(=O)N4CCCC4)c4c3CCCC4)CC2)c1C` [Example 2, 1-[4-(2,3-dimethylphenyl)piperazin-4-ium-1-yl]-2-[3-(pyrrolidine-1-carbonyl)-4,5,6,7-tetrahydroindazol-1-yl]ethanone], for which the IC50 at IDO1 [1] came out at 4.88 nM; on IDO1 [2] it was 555 nM.

As for `Cc1cccc(N2CCN(C(=O)Cn3nc(C(=O)N4C[C@@H](C)N[C@@H](C)C4)c4c3C[C@H]3C[C@@H]43)CC2)c1C` [Example 234, 1-[4-(2,3-dimethylphenyl)piperazin-1-yl]-2-{(3bR,4aR)-3-[(3R,5S)-3,5-dimethylpiperazine-1-carbonyl]-3b,4,4a,5-tetrahydro-1H-cyclopropa[3,4]cyclopenta[1,2-c]pyrazol-1-yl}ethan-1-one], the IC50 on IDO1 [1] is 3.61 nM; at IDO1 [2], 273 nM.
